Measurements taken from patent US9040527B2, “Pyrimidinediamine kinase inhibitors” (Rigel Pharmaceuticals, Inc., priority 2008, dated 2015).

Assays:
PLK1 [1] = molecular target: T1, PLK1 (Homo sapiens, UniProt P53350); experiment: Cellular PLK1 assay in K562 cells overexpressing CDC25C; format: cell-based; set-up: endogenous in cells; host or cells: K562 (human chronic myelogenous leukemia) overexpressing CDC25C, nocodazole-arrested; settings: nocodazole arrested, cdc25c p-Ser198 readout
Method: (§1) Inhibition of PLK1 was measured by quantifying phosphorylation of PLK1 substrates using chemiluminescent and fluorogenic probes. The protocols for these assays are provided below.
1. Culturing of K562 Cells
Human chronic myelogenous leukemia K562 cells (American Tissue Culture Collection) overexpressing CDC25C, were grown in Growth Medium having the following composition: Iscove Dulbecco's Modified Eagle's Medium (“Iscove DMEM”, Mediatech/Cellgro, Cat. #10-013-CV), 10% Fetal Bovine Serum (“FBS”, SAFC Biosciences, Cat. #12106-500M), and 1% penicillin/streptomycin (“pen-strep”, Mediatech/Cellgro, Cat. #30-002-CI). The cells were plated in 96 well round bottom tissue culture plates (Fisher, Costar* Cell Culture plates, Cat. #07-200-95) at 100,000 cells per 50 μL of Growth Medium per well. Nocodazole (Sigma, Cat. # M1404) was added to the growth media to arrest the cells in the G2 or M phase, at 333 nM concentration. The cells were incubated with nocodazole for 18 hours at 37° C. prior to addition of tested compounds.
2. Treatment of Cells with the Tested Compounds
Solutions of tested compounds in DMSO at different concentrations were prepared using serial dilutions. Each compound was tested at 8 concentration points, 10 μM, 3.3 μM, 1.11 μM, 0.37 μM, 0.12 μM, 0.04 μM, 0.014 μM, 0.005 μM, duplicate replicates.
Two controls were performed: “DMSO alone” control in which nocodazole and DMSO were present but no compounds were added, and “nocodazole alone” control, in which only nocodazole was present, but neither DMSO nor compounds were added.
The solutions of compounds were prepared by diluting 10 mM compound 1:1 in DMSO (5 μL 10 mM compound and 5 μL DMSO), followed by 1:3 serial dilutions of compound in DMSO performed by diluting 3 μL of higher concentration compound solution serially into 6 μL DMSO to give 3-fold dilutions. Next, 3 μL of each compound solution at each concentration was transferred to 750 μL of Growth Medium. In “DMSO alone” control 3 μL of DMSO alone was added to 750 μL of Growth Medium.
After the diluted compounds were mixed well in the Growth Medium, 50 μL of each compound solution in DMSO/Growth Medium was transferred to each well of the 96-plate containing cells in 50 μL of Growth Medium/Nocodazole.
The cells and compounds were incubated for 120 minutes at 37° C., in an atmosphere containing 5% CO2.
3. Fixation and Permeabilization of the Cells
After the cells were incubated with compounds, the cells were spun down at 1,000 rpm for 5 minutes at 4° C. and supernatants were removed by flicking the plates. Cells were then washed with 200 μl of ice cold PBS, spun down again and supernatants removed. Cells were then fixed and permeabilized by addition of 100 μL/well of Fixation and Permeabilization Solution (1× buffer provided in BD Biosciences Cytofix/Cytoperm™ Fixation/Permeabilization kit, Cat. #554714) and incubation for 20 minutes at room temperature. The fixative was then removed by centrifugation (5 minutes at 2,000 rpm), and plates were flicked to remove the fixative and washed twice, each time with 200 μL/well BD Perm/Wash buffer (10× concentrate provided in BD Biosciences Cytofix/Cytoperm™ Fixation/Permeabilization kit, Cat. #554714, 1× buffer prepared by dilution in distilled H2O).
Cells were spun down at 1,000 rpm for 5 minutes at 4° C. Supernatants were removed by flicking the plates. A solution of a primary antibody specific for cdc25cp-Ser198 was prepared by diluting Rabbit cdc25c (Ser198) antibody (Cell Signaling, #9529L) 1:50 in a Fluorescence Activated Cell Sorting (“FACS”) Buffer (2% FBS in PBS). The cell pellets were resuspended in 50 μL of the primary antibody solution. 50 μL of FACS buffer was added to unstained controls. Staining was allowed to proceed overnight at room temperature.
The plates were then washed by addition of 200 μL of FACS Buffer to each well, were centrifuged and the supernatant was removed. […]

PLK1 [2] = molecular target: T1, PLK1; experiment: In vitro PLK1 ELISA assay (biochemical); set-up: purchased Cell Signalling 7728
Method: as §1
In Vitro PLK1 ELISA Assay
1. Preparation of Assay Plates.
Costar 96-well black or white solid flat high binding plates (Fisher Scientific, Catalog No. 07-200-591) were coated with Neutravidin (Pierce, Catalog No. 31000) using the following protocol. A 0.01 mg/mL solution of Neutravidin in 1× Phosphate Buffered Saline (“PBS”, Cellgro/Mediatech, Catalog No. 21-040-CV) was added to each well (100 μL/well) and was incubated for 18-24 hours at 4° C. The plates were then washed with 1× Phosphate Buffer Saline—Tween (“PBST”, Calbiochem, Catalog No. 524653) buffer using a plate washer. The plates were treated with bovine serum albumin (“BSA”, Sigma, Catalog No. A7906) to block non-specific binding sites, by adding a 2% BSA solution in 1×PBST buffer to each well (100 μL/well) and incubating the plates for 1 hour at room temperature. The plates were then washed with 1×PBST buffer using a plate washer.
2. PLK1-Catalyzed Phosphorylation Reaction
An aqueous buffer solution A having the following composition was prepared:
20 mM HEPES (Cellgro/Mediatech, Catalog No. 25-060Ci), pH 7.2;
5 mM MgCl2 (Sigma, Catalog No. M2393);
2 mM MnCl2.4H2O (EM Biosciences, Catalog No. MX0185-2);
1 mM Dithiothreitol (“DTT”, Fluka, Catalog No. B4184).
Next, the substrate solution B was prepared by adding 2.6 μL of 10 mM ATP (Sigma, Catalog No. A7699) and 6.4 μL of the 1 mM PLK1 substrate, CHK2-derived peptide Biotin-SSLETVSTQELYSIP (custom synthesized at Anaspec) SEQ ID: No. 1, to 4691 μL of the buffer solution A. The concentration of the ATP in solution B is 5.44 μM (1.36×); the concentration of the PLK1 substrate in solution B is 1.36 μM (1.36×).
Compound solutions C of varying concentrations for each compound were prepared by dissolving each compound in dimethylsulfoxide (DMSO, Sigma, Catalog No. D2650) to varying concentrations, followed by adding 2 μL of each solution to 38 μL of the buffer solution A, thereby forming 10× compound solutions in 5% DMSO.
A PLK1 solution D was prepared by adding 8.4 μL of 100 μg/mL PLK1 (Cell Signalling, Catalog No. 7728) to 1392 μL of the buffer solution A, thereby forming 0.6 μg/mL (6×) PLK1 solution.
The aqueous 1.36× substrate solution B was added to each well (44 μL/well) resulting in binding of the substrate to the plate via biotin/neutravidin interaction. Then 10× compound solutions C for each tested compound at each tested concentration were added to each well (6 μL/well). Next, 6×PLK1 solution D was added to each well (10 μL/well).
The final concentrations of tested compounds in each well were 10 μM, 3.3 μM, 1.1 μM, 0.36 μM, 0.12 μM, 0.04 μM, 0.014 μM, and 0.005 μM.
The obtained reaction mixtures were incubated in the wells for 45 minutes at room temperature, allowing PLK1-catalyzed phosphorylation of the substrate to proceed. The plates were then washed with 1×PBST solution using a plate washer, such that the bound phosphorylated or unphosphorylated substrate remains attached to the wells upon washing.
The washed plates were developed by treating the plates with a primary antibody that is specific for the phosphorylated substrate, followed by treatment with a secondary antibody that is specific for the primary antibody, and that is capable of catalyzing a reaction that results in a chemiluminescent readout. The chemiluminescent readout was used to quantify the substrate phosphorylation, and, consequently, to determine IC50 values for PLK1 inhibition, and was measured using a luminometer (Perkin Elmer/Wallac plate reader). The plate development protocol is described below.
A mixed antibody solution E was prepared by adding 1 μL of the primary antibody, rabbit p-CHK2(T68) (Rockland, Catalog No. 401280), and 1 μL of the secondary antibody, HRP-goat anti-rabbit IgG (Jackson Immunoresearch Catalog No. 111-035-003) to 10000 μL of 0.1% BSA in 1×PBST buffer. […]

[3] = ELISA, CHK2-derived peptide substrate, read-out: PLK1 IC50 (μM) biochemical assay
[4] = read-out: IC50 in biochemical in vitro PLK1 ELISA assay (less than 10 μM)
[5] = read-out: IC50 in biochemical ELISA assay (less than 0.01 μM)

T1 sequence (P53350 whole entry): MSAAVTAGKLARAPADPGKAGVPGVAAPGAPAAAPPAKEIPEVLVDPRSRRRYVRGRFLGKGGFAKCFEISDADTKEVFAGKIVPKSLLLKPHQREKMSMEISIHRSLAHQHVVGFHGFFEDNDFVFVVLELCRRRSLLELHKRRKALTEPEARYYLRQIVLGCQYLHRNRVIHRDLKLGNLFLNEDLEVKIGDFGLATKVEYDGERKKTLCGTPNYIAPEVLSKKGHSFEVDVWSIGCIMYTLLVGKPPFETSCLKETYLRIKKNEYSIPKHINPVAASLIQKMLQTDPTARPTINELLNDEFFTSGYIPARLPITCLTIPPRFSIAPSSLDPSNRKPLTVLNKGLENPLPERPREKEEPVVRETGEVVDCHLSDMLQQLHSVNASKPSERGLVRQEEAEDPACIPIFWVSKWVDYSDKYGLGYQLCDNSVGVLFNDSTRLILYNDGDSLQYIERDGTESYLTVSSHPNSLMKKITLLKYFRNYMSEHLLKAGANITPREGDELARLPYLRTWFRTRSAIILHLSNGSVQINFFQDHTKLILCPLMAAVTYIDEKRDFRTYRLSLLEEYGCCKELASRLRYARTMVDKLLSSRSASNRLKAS

Compound | IC50 (PLK1 [1]) | IC50 (PLK1 [2]; [3]) | IC50 (PLK1 [2]; [4]) | IC50 (PLK1 [2]; [5])
CN1CCN(c2cccc(Nc3nccc(Nc4ccc5c(n4)NCCO5)n3)c2)CC1 [compound 21, N4-(3,4-dihydro-2H-pyrido[3,2-b][1,4]oxazin-6-yl)-N2-(3-(4-methylpiperazin-1-yl)phenyl)pyrimidine-2,4-diamine] | ≥ 10 µM | < 0.5 µM | < 10 µM | 
Cc1ccc(Nc2ncc(F)c(Nc3ccc4c(n3)NCCO4)n2)cc1N1CCN(C)CC1 [compound 22, N4-(3,4-dihydro-2H-pyrido[3,2-b][1,4]oxazin-6-yl)-5-fluoro-N2-(4-methyl-3-(4-methylpiperazin-1-yl)phenyl)pyrimidine-2,4-diamine] | ≥ 10 µM | ≥ 10 µM |  | 
CC(C)Oc1ccc(N2CCN(C)CC2)cc1Nc1ncc(F)c(Nc2ccc3c(n2)NCCO3)n1 [compound 23, N4-(3,4-dihydro-2H-pyrido[3,2-b][1,4]oxazin-6-yl)-5-fluoro-N2-(2-isopropoxy-5-(4-methylpiperazin-1-yl)phenyl)pyrimidine-2,4-diamine] | 0.5 to 5 µM | < 0.5 µM | < 10 µM | 
CN1CCN(c2cc(Nc3ncc(F)c(Nc4ccc5c(n4)NCCO5)n3)cc(C(F)(F)F)c2)CC1 [compound 24, N4-(3,4-dihydro-2H-pyrido[3,2-b][1,4]oxazin-6-yl)-5-fluoro-N2-(3-(4-methylpiperazin-1-yl)-5-(trifluoro-methyl)phenyl)pyrimidine-2,4-diamine] | ≥ 10 µM | < 0.5 µM | < 10 µM | 
CC(C)Oc1cc(Nc2ncc(F)c(Nc3ccc4c(n3)NC(=O)CO4)n2)cc(N2CCN(C)CC2)c1 [compound 25, 6-(5-fluoro-2-(3-isopropoxy-5-(4-methylpiperazin-1-yl)phenylamino)pyrimidin-4-ylamino)-2H-pyrido[3,2-b][1,4]oxazin-3(4H)-one] | < 0.5 µM | < 0.5 µM | < 10 µM | < 0.01 µM
CC(C)Oc1cc(Nc2ncc(F)c(Nc3ccc4c(n3)NCCO4)n2)cc(N2CCN(C)CC2)c1 [compound 26, N4-(3,4-dihydro-2H-pyrido[3,2-b][1,4]oxazin-6-yl)-5-fluoro-N2-(3-isopropoxy-5-(4-methylpiperazin-1-yl)phenyl)pyrimidine-2,4-diamine] | < 0.5 µM | < 0.5 µM | < 10 µM | < 0.01 µM
CC(C)c1ccc(N2CCN(C)CC2)cc1Nc1ncc(F)c(Nc2ccc3c(n2)NCCO3)n1 [compound 27, N4-(3,4-dihydro-2H-pyrido[3,2-b][1,4]oxazin-6-yl)-5-fluoro-N2-(2-isopropyl-5-(4-methylpiperazin-1-yl)phenyl)pyrimidine-2,4-diamine] | 0.5 to 5 µM | < 0.5 µM | < 10 µM | 
CCCN1CCOc2ccc(Nc3nc(Nc4ccc(N5CC6CC5CN6S(C)(=O)=O)c(C)c4)ncc3F)nc21 (stereo not drawn) [compound 28, 5-fluoro-N2-(3-methyl-4-(5-(methylsulfonyl)-2,5-diaza-bicyclo[2.2.1]heptan-2-yl)phenyl)-N4-(4-propyl-3,4-dihydro-2H-pyrido[3,2-b][1,4]oxazin-6-yl)pyrimidine-2,4-diamine] | 0.5 to 5 µM | 0.5 to 5 µM | < 10 µM | 
CN1CCN(c2cc(Nc3ncc(F)c(Nc4ccc5c(n4)NC(=O)CO5)n3)cc(C(F)(F)F)c2)CC1 [compound 29, 6-(5-fluoro-2-(3-(4-methylpiperazin-1-yl)-5-(trifluoromethyl)phenyl-amino)pyrimidin-4-ylamino)-2H-pyrido[3,2-b][1,4]oxazin-3(4H)-one] | ≥ 10 µM | < 0.5 µM | < 10 µM | 
CC(C)Oc1ccc(N2CCN(C)CC2)cc1Nc1ncc(F)c(Nc2ccc3c(n2)NC(=O)CO3)n1 [compound 30, 6-(5-fluoro-2-(2-isopropoxy-5-(4-methylpiperazin-1-yl)phenylamino)pyrimidin-4-ylamino)-2H-pyrido[3,2-b][1,4]oxazin-3(4H)-one] | < 0.5 µM | < 0.5 µM | < 10 µM | 
CCCN1C(=O)COc2ccc(Nc3nc(Nc4ccc(N5CC6CC5CN6S(C)(=O)=O)c(C)c4)ncc3F)nc21 (stereo not drawn) [compound 31, 6-(5-fluoro-2-(3-methyl-4-(5-(methylsulfonyl)-2,5-diazabicyclo[2.2.1]heptan-2-yl)phenylamino)pyrimidin-4-ylamino)-4-propyl-2H-pyrido[3,2-b][1,4]oxazin-3(4H)-one] | 0.5 to 5 µM | ≥ 10 µM |  | 
